Where two headings read alike, the source gives them in different places.
Columns and labels:
Type in all cases: biochemical
[1] = molecular target: T1, ROCK2 (Homo sapiens, UniProt O75116); test: Rho kinase inhibition assay (IMAP fluorescence polarization), ROCK2;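 also: kinase reaction started with 10 µM ATP and run 60 min at room temperature, then phosphorylated substrate captured on IMAP beads for 30 min and fluorescence polarization read in mP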
T1 construct: purchased Upstate/Chemicon 14-451
Description: (§1) Following the pre-incubation, 10 μM ATP was added to initiate the reaction. After 60 minutes at room temperature, Molecular Devices IMAP™ binding solution was added to bind phosphorylated substrate. After 30 minutes of incubation in the presence of the IMAP™ beads, the fluorescence polarization was read and the ratio was reported as mP. IC50 values for compounds and EC50 values for ATP were calculated using the Prism software from Graphpad.

[2] = molecular target: T2, p70S6K human enzyme (Homo sapiens, UniProt P23443, T412E); test: p70S6K inhibition assay (IMAP FP); conditions: 30 μM ATP; Ki=IC50/(1+([ATP Challenge]/EC50 ATP)); read-out: p70S6K Ki, Avg;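 also: kinase reaction run at room temperature, phosphorylated substrate captured on IMAP beads and read as fluorescence polarization in mP, IC50 then converted to Ki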
T2 construct: purchased Upstate Chemicon 14-486
T2 sequence (P23443 1-421 T412E limits assumed): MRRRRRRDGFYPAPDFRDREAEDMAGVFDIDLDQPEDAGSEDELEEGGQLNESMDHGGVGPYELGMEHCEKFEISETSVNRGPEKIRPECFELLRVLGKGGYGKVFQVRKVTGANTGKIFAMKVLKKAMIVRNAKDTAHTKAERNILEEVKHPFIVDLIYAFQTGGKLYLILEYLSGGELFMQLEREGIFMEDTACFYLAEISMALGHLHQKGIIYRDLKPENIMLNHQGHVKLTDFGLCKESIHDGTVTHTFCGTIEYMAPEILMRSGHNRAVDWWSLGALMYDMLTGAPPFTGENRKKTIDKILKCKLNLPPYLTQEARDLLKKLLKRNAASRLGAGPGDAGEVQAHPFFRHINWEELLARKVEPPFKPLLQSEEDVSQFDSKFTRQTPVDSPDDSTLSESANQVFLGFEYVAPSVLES

[3] = molecular target: T3, ROCK1 (Homo sapiens, UniProt Q13464); test: Rho kinase inhibition assay (IMAP fluorescence polarization), ROCK1;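 also: kinase reaction run 60 min at room temperature, then phosphorylated substrate captured on IMAP beads for 30 min, with fluorescence polarization read in mP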
T3 construct: purchased Upstate/Chemicon 14-601
T3 sequence (Q13464 17-535 limits assumed): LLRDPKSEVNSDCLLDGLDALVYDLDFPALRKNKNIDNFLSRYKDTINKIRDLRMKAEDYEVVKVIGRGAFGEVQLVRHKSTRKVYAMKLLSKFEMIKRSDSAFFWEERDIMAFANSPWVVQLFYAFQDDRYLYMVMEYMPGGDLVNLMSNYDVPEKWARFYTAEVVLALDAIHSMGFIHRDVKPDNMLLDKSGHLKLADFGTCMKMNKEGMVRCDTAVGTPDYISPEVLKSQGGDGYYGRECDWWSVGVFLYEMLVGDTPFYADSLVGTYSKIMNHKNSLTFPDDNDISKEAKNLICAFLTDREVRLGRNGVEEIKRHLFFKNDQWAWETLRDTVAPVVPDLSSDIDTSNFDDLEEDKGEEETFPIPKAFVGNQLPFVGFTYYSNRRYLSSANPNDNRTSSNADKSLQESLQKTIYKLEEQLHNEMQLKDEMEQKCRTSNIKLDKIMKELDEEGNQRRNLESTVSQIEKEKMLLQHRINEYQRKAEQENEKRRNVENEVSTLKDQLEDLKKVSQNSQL
Description: as §1

[4] = molecular target: T4, Akt3 human enzyme (Homo sapiens, UniProt Q9Y243); test: Akt3 inhibition assay (IMAP FP); conditions: 30 μM ATP; Ki=IC50/(1+([ATP Challenge]/EC50 ATP)); read-out: Akt3 Ki, Avg;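 also: kinase reaction run 60 min at room temperature after 30 µM ATP start, phosphorylated substrate captured on IMAP beads and read as fluorescence polarization (mP)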
T4 construct: purchased Upstate Chemicon 14-502
T4 sequence (Q9Y243 whole entry): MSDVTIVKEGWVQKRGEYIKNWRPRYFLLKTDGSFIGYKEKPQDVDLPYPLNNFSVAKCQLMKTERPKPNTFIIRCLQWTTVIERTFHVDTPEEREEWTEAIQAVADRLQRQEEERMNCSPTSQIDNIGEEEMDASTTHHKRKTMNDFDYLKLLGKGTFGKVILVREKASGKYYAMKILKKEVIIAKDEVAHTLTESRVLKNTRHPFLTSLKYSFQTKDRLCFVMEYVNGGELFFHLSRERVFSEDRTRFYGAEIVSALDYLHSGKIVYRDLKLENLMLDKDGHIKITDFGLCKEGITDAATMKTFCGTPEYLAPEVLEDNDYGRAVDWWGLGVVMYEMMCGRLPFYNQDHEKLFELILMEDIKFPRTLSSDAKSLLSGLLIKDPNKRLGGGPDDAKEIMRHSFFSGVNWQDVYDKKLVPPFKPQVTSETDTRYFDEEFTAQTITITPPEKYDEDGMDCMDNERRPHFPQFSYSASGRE

[5] = 10 μM ATP, read-out: ROCK2 Ki, Avg

T1 sequence (O75116 11-552 limits assumed): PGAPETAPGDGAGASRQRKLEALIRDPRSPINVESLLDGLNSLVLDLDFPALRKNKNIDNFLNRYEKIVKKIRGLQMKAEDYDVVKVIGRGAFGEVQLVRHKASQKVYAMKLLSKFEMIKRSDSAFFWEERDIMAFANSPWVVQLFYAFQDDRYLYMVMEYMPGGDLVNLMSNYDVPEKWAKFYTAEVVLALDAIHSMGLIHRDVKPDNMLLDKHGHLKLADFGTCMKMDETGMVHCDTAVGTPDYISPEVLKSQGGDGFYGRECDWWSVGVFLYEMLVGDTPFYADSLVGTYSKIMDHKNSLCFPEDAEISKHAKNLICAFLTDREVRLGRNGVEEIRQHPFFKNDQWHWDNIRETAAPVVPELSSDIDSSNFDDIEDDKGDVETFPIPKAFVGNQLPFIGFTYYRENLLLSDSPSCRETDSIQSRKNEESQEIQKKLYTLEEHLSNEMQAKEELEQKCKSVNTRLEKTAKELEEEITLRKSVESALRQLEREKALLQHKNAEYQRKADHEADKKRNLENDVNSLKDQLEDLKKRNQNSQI

| Compound | Ki [1, 5] | Ki [2] | Ki ([3]; Avg, 10 μM ATP) | Ki [4] | Ki ([1]; average Ki, read-out: ROCK2 Ki) | Ki ([3]; average Ki) |
| --- | --- | --- | --- | --- | --- | --- |
| c1ccc(CN2CCC[C@@H](Nc3ccc4[nH]ncc4c3)C2)cc1 [Compound 1.110, (R)-N-(1-benzylpiperidin-3-yl)-1H-indazol-5-amine] | 11.2 nM | 1300 nM | 59 nM | 463 nM | – | – |
| Brc1cccc(CN2CCC[C@H](Nc3ccc4[nH]ncc4c3)C2)c1 [Compound 1.183, (S)-N-(1-(3-bromobenzyl)piperidin-3-yl)-1H-indazol-5-amine] | 16.8 nM | 2480 nM | 165 nM | 9010 nM | – | – |
| Clc1cccc(CN2CCC[C@@H](Nc3ccc4[nH]ncc4c3)C2)c1 [Compound 1.191, (R)-N-(1-(3-chlorobenzyl)piperidin-3-yl)-1H-indazol-5-amine] | 33.4 nM | – | 147 nM | – | – | – |
| CS(=O)(=O)c1cccc(CN2CCC[C@H](Nc3ccc4[nH]ncc4c3)C2)c1 [Compound 1.182, (S)-N-(1-(3-(methylsulfonyl)benzyl)piperidin-3-yl)-1H-indazol-5-amine] | 30.6 nM | – | 408 nM | – | – | – |
| CCOC(=O)c1ccc(CN2CCC[C@H](Nc3ccc4[nH]ncc4c3)C2)cc1 [Compound 1.216, (S)-ethyl 4-((3-(1H-indazol-5-ylamino)piperidin-1-yl)methyl)benzoate] | 403 nM | – | 1890 nM | – | – | – |
| NC(=O)COc1cccc(CN2CC[C@@H](Nc3cccc4cnccc34)C2)c1 [Compound 2.040, (R)-2-(3-((3-(isoquinolin-5-ylamino)pyrrolidin-1-yl)methyl)phenoxy)acetamide] | 25.4 nM | – | 59.6 nM | – | – | – |
| CS(=O)(=O)c1cccc(CN2CCC[C@@H](Nc3ccc4[nH]ncc4c3)C2)c1 [Compound 1.160, (R)-N-(1-(3-(methylsulfonyl)benzyl)piperidin-3-yl)-1H-indazol-5-amine] | 49.4 nM | – | 218 nM | – | – | – |
| COc1c(CN2CCC[C@H](Nc3ccc4[nH]ncc4c3)C2)cccc1NS(C)(=O)=O [Compound 1.280, (S)-N-(3-((3-(1H-indazol-5-ylamino)piperidin-1-yl)methyl)-2-methoxyphenyl)methanesulfonamide] | 38 nM | – | 746 nM | – | – | – |
| COc1ccc(CN2CC[C@@H](Nc3cccc4cnccc34)C2)cc1OCCO [Compound 2.067, (R)-2-(5-((3-(isoquinolin-5-ylamino)pyrrolidin-1-yl)methyl)-2-methoxyphenoxy)ethanol] | 4.2 nM | – | 19.6 nM | – | 4.2 nM | 19.6 nM |
| CCOC(=O)COc1cccc(CN2CCC[C@@H](Nc3ccc4[nH]ncc4c3)C2)c1 [Compound 1.147, (R)-ethyl 2-(3-((3-(1H-indazol-5-ylamino)piperidin-1-yl)methyl)phenoxy)acetate] | 45.7 nM | – | 58.3 nM | – | – | – |
| O=[N+]([O-])c1cc(CN2CC[C@@H](Nc3cccc4cnccc34)C2)cs1 [Compound 2.089, (R)-N-(1-((5-nitrothiophen-3-yl)methyl)pyrrolidin-3-yl)isoquinolin-5-amine] | 32.9 nM | – | 102 nM | – | – | – |
| CC(=O)NCc1cccc(CN2CC[C@@H](Nc3cccc4cnccc34)C2)c1 [Compound 2.063, (R)-N-(3-((3-(isoquinolin-5-ylamino)pyrrolidin-1-yl)methyl)benzyl)acetamide] | 73.9 nM | – | 206 nM | – | – | – |
| O=S(=O)(Nc1cccc(CN2CC[C@@H](Nc3cccc4cnccc34)C2)c1)N1CCCCC1 [Compound 2.069, (R)-N-(3-((3-(isoquinolin-5-ylamino)pyrrolidin-1-yl)methyl)phenyl)piperidine-1-sulfonamide] | 2.4 nM | – | 16.7 nM | – | 2.4 nM | 16.7 nM |
| COc1c(CN2CC[C@@H](Nc3cccc4cnccc34)C2)cccc1NS(C)(=O)=O [Compound 2.096, (R)-N-(3-((3-(isoquinolin-5-ylamino)pyrrolidin-1-yl)methyl)-2-methoxyphenyl)methanesuifonamide] | 9.6 nM | – | 70.2 nM | – | 9.6 nM | 70.2 nM |
| CS(=O)(=O)Cc1cccc(CN2CCC[C@@H](Nc3ccc4[nH]ncc4c3)C2)c1 [Compound 1.139, (R)-N-(1-(3-(methylsuifonylmethyl)benzyl)piperidin-3-yl)-1H-indazol-5-amine] | 23.2 nM | – | 200 nM | – | – | – |
| OCCOc1cccc(CN2CCC[C@H](Nc3ccc4[nH]ncc4c3)C2)c1 [Compound 1.090, (S)-2-(3-((3-(1H-indazol-5-ylamino)piperidin-1-yl)methyl)phenoxy)ethanol] | 24.9 nM | – | 281 nM | – | – | – |
| NCc1cccc(CN2CCC[C@H](Nc3ccc4[nH]ncc4c3)C2)c1 [Compound 1.184, (S)-N-(1-(3-(aminomethyl)benzyl)piperidin-3-yl)-1H-indazol-5-amine] | 90.9 nM | – | 843 nM | – | – | – |
| CCOc1cccc(CN2CCC[C@@H](Nc3ccc4[nH]ncc4c3)C2)c1 [Compound 1.203, (R)-N-(1-(3-ethoxybenzyl)piperidin-3-yl)-1H-indazol-5-amine] | 41.6 nM | – | 329 nM | – | – | – |

| Compound | Ki [1, 5] | Ki [2] | Ki ([3]; Avg, 10 μM ATP) | Ki [4] | Ki ([1]; average Ki, read-out: ROCK2 Ki) | Ki ([3]; average Ki) |
| --- | --- | --- | --- | --- | --- | --- |
| CC1(C)OC[C@H](COc2cccc(CN3CCC[C@@H](Nc4ccc5[nH]ncc5c4)C3)c2)O1 [Compound 1.222, N-((R)-1-(3-(((S)-2,2-dimethyl-1,3-dioxolan-4-yl)methoxy)benzyl)piperidin-3-yl)-1H-indazol-5-amine] | 75.5 nM | – | 229 nM | – | – | – |
| Cc1ccc(CN2CC[C@@H](Nc3cccc4cnccc34)C2)cc1OCC(=O)OC(C)(C)C [Compound 2.071, (R)-tert-butyl 2-(5-((3-(isoquinolin-5-ylamino)pyrrolidin-1-yl)methyl)-2-methylphenoxy)acetate] | 11.9 nM | – | 21.2 nM | – | – | – |
| O=C(OCCOc1cccc(CN2CCC[C@@H](Nc3ccc4[nH]ncc4c3)C2)c1)c1ccccc1 [Compound 1.225, (R)-2-(3-((3-(1H-indazol-5-ylamino)piperidin-1-yl)methyl)phenoxy)ethyl benzoate] | 189 nM | – | 605 nM | – | – | – |
| CSc1ccc(CN2CCC[C@H](Nc3cccc4cnccc34)C2)cc1 [Compound 2.051, (S)-N-(1-(4-(methylthio)benzyl)piperidin-3-yl)isoquinolin-5-amine] | 1180 nM | – | 1440 nM | – | – | – |
| Clc1ccc(CN2CC[C@@H](Nc3cccc4cnccc34)C2)cc1Cl [Compound 2.048, (R)-N-(1-(3,4-dichlorobenzyl)pyrrolidin-3-yl)isoquinolin-5-amine] | 34.6 nM | – | 71.5 nM | – | – | – |
| CC(C)(C)OC(=O)NCc1ccc(CN2CCC[C@H](Nc3ccc4[nH]ncc4c3)C2)cc1 [Compound 1.199, (S)-tert-butyl 4-((3-(1H-indazol-5-ylamino)piperidin-1-yl)methyl)benzylcarbamate] | 213 nM | – | 1860 nM | – | – | – |
| O=C(O)COc1cccc(CN2CCC[C@@H](Nc3ccc4[nH]ncc4c3)C2)c1 [Compound 1.125, (R)-2-(3-((3-(1H-indazol-5-ylamino)piperidin-1-yl)methyl)phenoxy)acetic acid] | 50.9 nM | – | 557 nM | – | – | – |
| Cc1cccc(CN2CCC[C@@H](Nc3ccc4[nH]ncc4c3)C2)c1C [Compound 1.172, (R)-N-(1-(2,3-dimethylbenzyl)piperidin-3-yl)-1H-indazol-5-amine] | 20.5 nM | – | 103 nM | – | – | – |
| Cc1c(CN2CC[C@@H](Nc3cccc4cnccc34)C2)cccc1NS(C)(=O)=O [Compound 2.078, (R)-N-(3-((3-(isoquinolin-5-ylamino)pyrrolidin-1-yl)methyl)-2-methylphenyl)methanesulfonamide] | 2.6 nM | – | 18.3 nM | – | 2.6 nM | 18.3 nM |
| c1cc(N2CCCC2)ccc1CN1CCC[C@@H](Nc2ccc3[nH]ncc3c2)C1 [Compound 1.248, (R)-N-(1-(4-(pyrrolidin-1-yl)benzyl)piperidin-3-yl)-1H-indazol-5-amine] | 891 nM | – | 2350 nM | – | – | – |
| c1cc2c(cc1CN1CCC[C@@H](Nc3ccc4[nH]ncc4c3)C1)OCCO2 [Compound 1.177, (R)-N-(1-((2,3-dihydrobenzo[b][1,4]dioxin-6-yl)methyl)piperidin-3-yl)-1H-indazol-5-amine] | 18.2 nM | – | 156 nM | – | – | – |
| CC(C)(C)OC(=O)COc1cccc(CN2CCC[C@H](Nc3ccc4[nH]ncc4c3)C2)c1 [Compound 1.187, (S)-tert-butyl 2-(3-((3-(1H-indazol-5-ylamino)piperidin-1-yl)methyl)phenoxy)acetate] | 17.3 nM | – | 296 nM | – | – | – |
| c1cc(N[C@@H]2CCN(Cc3cncnc3)C2)c2ccncc2c1 [Compound 2.084, (R)-N-(1-(pyrimidin-5-ylmethyl)pyrrolidin-3-yl)isoquinolin-5-amine] | 350 nM | – | 1170 nM | – | – | – |
| c1cn(-c2ccc(CN3CCC[C@H](Nc4ccc5[nH]ncc5c4)C3)cc2)cn1 [Compound 1.255] | 359 nM | – | 3560 nM | – | – | – |
| Cc1ccc(CN2CC[C@@H](Nc3ccc4[nH]ncc4c3)C2)cc1OCCO [Compound 1.276] | 12.3 nM | – | 64.2 nM | – | – | – |
| CS(=O)(=O)c1ccc(CN2CCC[C@H](Nc3ccc4[nH]ncc4c3)C2)cc1 [Compound 1.181, (S)-N-(1-(4-(methylsulfonyl)benzyl)piperidin-3-yl)-1H-indazol-5-amine] | 32.8 nM | – | 568 nM | – | – | – |
| NC(=O)c1cccc(CN2CCC[C@@H](Nc3ccc4[nH]ncc4c3)C2)c1 [Compound 1.221, (R)-3-((3-(1H-indazol-5-ylamino)piperidin-1-yl)methyl)benzamide] | 30 nM | – | 264 nM | – | – | – |
| CC(C)(C)OC(=O)NCc1cccc(CN2CCC[C@@H](Nc3ccc4[nH]ncc4c3)C2)c1 [Compound 1.140, (R)-tert-butyl 3-((3-(1H-indazol-5-ylamino)piperidin-1-yl)methyl)benzylcarbamate] | 32.9 nM | – | 236 nM | – | – | – |

— patent US20090325959A1 (priority 2008, published 2009)
